Assay results published in US7943804B2, “Lutein extraction from ozone-treated plant sources” (Board of Supervisors of Louisiana State University and …, priority 2006, dated 2011).
Like-named read-outs stand apart in the source and are kept apart here.

Experiments:
[1] = test system: Salmonella typhimurium tester strain TA100; settings: for Number of Revertants (without use of AFB1): TA100
[2] = test system: AFB1 mutagenicity, Salmonella strains; settings: cited from earlier work
[3] = test system: AFB1 mutagenicity in Salmonella typhimurium tester strain TA100; assay type: cell-based; settings: AFB1 500 ng/plate
[4] = test system: Salmonella typhimurium tester strain TA100; assay type: cell-based

CC1=C[C@H](O)CC(C)(C)[C@H]1/C=C/C(C)=C/C=C/C(C)=C/C=C/C=C(C)/C=C/C=C(C)/C=C/C1=C(C)C[C@@H](O)CC1(C)C [Lutein, β, e-carotene-3,3′-diol]
mutagenic effect (increase of revertants over the natural rate) ([1]; TA100, result in words): neither purified lutein nor corn lutein extracts increase the number of revertants over the natural rate
Number of Revertants (without use of AFB1) ([1]; lutein standard 0.02 μg/plate): 247 ± 15
Number of Revertants (without use of AFB1) ([1]; lutein standard 0.2 μg/plate, listed as Lutein Standard): 258 ± 10
Number of Revertants (without use of AFB1) ([1]; lutein standard 0.2 μg/plate, listed as lutein standard): 254
Number of Revertants (without use of AFB1) ([1]; lutein standard 0.8 μg/plate, listed as Lutein Standard): 261 ± 13
Number of Revertants (without use of AFB1) ([1]; lutein standard 0.8 μg/plate, listed as lutein standard): 261
Number of Revertants (without use of AFB1) ([1]; lutein standard 2 μg/plate): 243 ± 8
Number of Revertants (without use of AFB1) ([1]; lutein standard 10 μg/plate, listed as Lutein Standard): 264 ± 12
Number of Revertants (without use of AFB1) ([1]; lutein standard 10 μg/plate, listed as lutein standard): 264
mutagenic effect of aflatoxin relative to control [2]: 2%
inhibition of AFB1 mutagenicity, result in words ([2]; test based on Salmonella strains): inhibit the mutagenicity of AFB1
inhibition of AFB1 mutagenicity, result in words ([3]; TA100): inhibited AFB1 (500 ng/plate) mutagenicity in a dose-response manner
Number of Revertants ([3]; lutein standard 0.02 μg/plate): 876 ± 34
Percent Inhibition ([3]; lutein standard 0.02 μg/plate): 5.3%
Number of Revertants ([3]; lutein standard 0.2 μg/plate): 813 ± 45
Percent Inhibition ([3]; lutein standard 0.2 μg/plate): 12.1%
Number of Revertants ([3]; lutein standard 0.8 μg/plate): 741 ± 25
Percent Inhibition ([3]; lutein standard 0.8 μg/plate): 19.9%
Number of Revertants ([3]; lutein standard 2 μg/plate): 679 ± 39
Percent Inhibition ([3]; lutein standard 2 μg/plate): 26.6%
Number of Revertants ([3]; lutein standard 10 μg/plate): 568 ± 50
Percent Inhibition ([3]; lutein standard 10 μg/plate): 38.6%

CC1=CCCC(C)(C)[C@H]1/C=C/C(C)=C/C=C/C(C)=C/C=C/C=C(C)/C=C/C=C(C)/C=C/C1=C(C)CCCC1(C)C [α-carotene]
mutagenic effect of aflatoxin relative to control [2]: 2%

aflatoxin B1 [AFB1]
mutagenic potency [4]: about 925 revertants/plate
